The numbers were not newly measured in patent US20160317610A1, “COMPOSITIONS AND METHODS FOR TREATING OVARIAN CANCER INCLUDING PREVENTING THE […]” (University of Southern California, priority 2013, published 2016), which cites them from elsewhere.

For this data set, the system named is advanced OC.

For `CC(C)[C@H]1C(=O)N[C@@H](CCCN=C(N)N)C(=O)NCC(=O)N[C@@H](CC(=O)O)C(=O)N[C@H](Cc2ccccc2)C(=O)N1C` [Cilengitide, cyclo(L-Arg-Gly-L-Asp-D-Phe-N-methyl-L-Val)], the clinical efficacy entry is recorded as “failed to show clinical efficacy”.
